Measured values published in ChEMBL document CHEMBL1201862, “PubChem BioAssay data set” (2004).
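Protocol summary: plate cells (96-well), add compound at 5 concentrations, incubate 48 h, interpolate endpoints linearly. At the GI50, growth is halved.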 The source made the active and inactive calls. No stated cut-off is given here; in the data, active = GI50 up to about 1.1 µM and inactive = higher.

Columns and labels:
Assay in all cases: growth of human tumour cells (NCI), 48 h
[1] = tested on: SNB-78
[2] = tested on: HOP-92
[3] = tested on: XF498
[4] = tested on: SR
[5] = tested on: SK-MEL-5
[6] = tested on: SK-MEL-2
[7] = tested on: MCF7
[8] = tested on: UACC-257
[9] = tested on: IGROV-1
[10] = tested on: DLD-1
[11] = tested on: NCI-H522
[12] = tested on: NCI/ADR-RES
[13] = tested on: KM-20L2
[14] = tested on: HOP-18
[15] = tested on: RPMI-8226
[16] = tested on: SNB-19
[17] = tested on: NCI-H23
[18] = tested on: OVCAR-3
[19] = tested on: U-251
[20] = tested on: MOLT-4
[21] = tested on: UO-31
[22] = tested on: MDA-MB-231
[23] = tested on: NCI-H460
[24] = tested on: COLO 205
[25] = tested on: TK-10
[26] = tested on: LOX IMVI
[27] = tested on: M14
[28] = tested on: HCT-116
[29] = tested on: HCC 2998
[30] = tested on: RXF 393
[31] = tested on: A549
[32] = tested on: K562
[33] = tested on: SF-268
[34] = tested on: NCI-H226
[35] = tested on: OVCAR-4
[36] = tested on: BT-549
[37] = tested on: DU-145
[38] = tested on: SK-MEL-28
[39] = tested on: SN12C
[40] = tested on: SW-620
[41] = tested on: OVCAR-5
[42] = tested on: 786-0
[43] = tested on: KM12
[44] = tested on: MDA-N
[45] = tested on: CAKI-1
[46] = tested on: SF-539
[47] = tested on: T47D
[48] = tested on: HOP-62
[49] = tested on: CCRF-CEM
[50] = tested on: M19-MEL
[51] = tested on: Hs-578T
[52] = tested on: UACC-62
[53] = tested on: ACHN
[54] = tested on: Malme-3M
[55] = tested on: SF-295
[56] = tested on: HL-60
[57] = tested on: MDA-MB-435
[58] = tested on: EKVX
[59] = tested on: HT-29
[60] = tested on: OVCAR-8
[61] = tested on: SNB-75
[62] = tested on: SK-OV-3
[63] = tested on: HCT-15
[64] = tested on: A498
[65] = tested on: DMS-273
[66] = tested on: PC-3
[67] = tested on: DMS-114
[68] = tested on: LXFL 529

CCCCCCCCCCCCOCCCOP(=O)([O-])OCC[N+](C)(C)C
GI50 [1]: 25.2 µM (inactive)
GI50 [2]: 19.4 µM (inactive)
GI50 [3]: 37.7 µM (inactive)
GI50 [4]: 11.9 µM (inactive)
GI50 [5]: 48.6 µM (inactive)
GI50 [6]: 43.5 µM (inactive)
GI50 [7]: 45.2 µM (inactive)
GI50 [8]: > 76 µM (inactive)
GI50 [9]: 6.14 µM (inactive)
GI50 [10]: 27.9 µM (inactive)
GI50 [11]: 22.7 µM (inactive)
GI50 [12]: > 81.1 µM (inactive)
GI50 [13]: 17 µM (inactive)
GI50 [14]: 32.7 µM (inactive)
GI50 [15]: 9.08 µM (inactive)
GI50 [16]: 20.6 µM (inactive)
GI50 [17]: 67.6 µM (inactive)
GI50 [18]: 51.9 µM (inactive)
GI50 [19]: 16.1 µM (inactive)
GI50 [20]: 20.2 µM (inactive)
GI50 [21]: 49.4 µM (inactive)
GI50 [22]: 11.3 µM (inactive)
GI50 [23]: 13.9 µM (inactive)
GI50 [24]: 6.75 µM (inactive)
GI50 [25]: 3.4 µM (inactive)
GI50 [26]: 32.2 µM (inactive)
GI50 [27]: 32.8 µM (inactive)
GI50 [28]: 26.4 µM (inactive)
GI50 [29]: 7.4 µM (inactive)
GI50 [30]: 9.75 µM (inactive)
GI50 [31]: 64 µM (inactive)
GI50 [32]: 48.8 µM (inactive)
GI50 [33]: 30.3 µM (inactive)
GI50 [34]: 24.3 µM (inactive)
GI50 [35]: 22.1 µM (inactive)
GI50 [36]: 9.04 µM (inactive)
GI50 [37]: 34.3 µM (inactive)
GI50 [38]: 58.5 µM (inactive)
GI50 [39]: 28.5 µM (inactive)
GI50 [40]: 63.5 µM (inactive)
GI50 [41]: 21.1 µM (inactive)
GI50 [42]: 10.8 µM (inactive)
GI50 [43]: 2.95 µM (inactive)
GI50 [44]: 13 µM (inactive)
GI50 [45]: 13.2 µM (inactive)
GI50 [46]: 31.2 µM (inactive)
GI50 [47]: 3.64 µM (inactive)
GI50 [48]: 43.2 µM (inactive)
GI50 [49]: 21.1 µM (inactive)
GI50 [50]: 28.2 µM (inactive)
GI50 [51]: 22.4 µM (inactive)
GI50 [52]: 28.1 µM (inactive)
GI50 [53]: 30.6 µM (inactive)
GI50 [54]: 64.7 µM (inactive)
GI50 [55]: 35.5 µM (inactive)
GI50 [56]: 7.21 µM (inactive)
GI50 [57]: 23.9 µM (inactive)
GI50 [58]: 99.1 µM (inactive)
GI50 [59]: 17.3 µM (inactive)
GI50 [60]: 47.8 µM (inactive)
GI50 [61]: 24.9 µM (inactive)
GI50 [62]: 50.8 µM (inactive)
GI50 [63]: 25.6 µM
GI50 [64]: 30 µM (inactive)
GI50 [65]: 12.9 µM (inactive)
GI50 [66]: 2.18 µM (inactive)

COc1ccc(C(c2ccc(C(C)C)cc(=O)c2O)c2ccc3cccnc3c2O)cc1 (stereo not given)
GI50 [1]: 1.05 µM (active)
GI50 [2]: 0.235 µM (active)
GI50 [3]: 2.17 µM (inactive)
GI50 [4]: 1 µM (active)
GI50 [5]: 0.507 µM (active)
GI50 [6]: 2.02 µM (inactive)
GI50 [67]: 0.173 µM (active)
GI50 [9]: 0.425 µM (active)
GI50 [10]: 0.45 µM (active)
GI50 [11]: 1.8 µM (inactive)
GI50 [15]: 1.97 µM (inactive)
GI50 [17]: 0.349 µM (active)
GI50 [18]: 1.24 µM (inactive)
GI50 [68]: 0.506 µM (active)
GI50 [19]: 0.438 µM (active)
GI50 [20]: 0.558 µM (active)
GI50 [21]: 0.421 µM (active)
GI50 [23]: 0.297 µM (active)
GI50 [24]: 1.05 µM (active)
GI50 [26]: 0.499 µM (active)
GI50 [27]: 0.933 µM (active)
GI50 [28]: 0.318 µM (active)
GI50 [31]: 0.328 µM (active)
GI50 [32]: 0.399 µM (active)
GI50 [33]: 0.399 µM (active)
GI50 [34]: 0.991 µM (active)
GI50 [35]: 2.88 µM (inactive)
GI50 [39]: 0.415 µM (active)
GI50 [40]: 3.68 µM (inactive)
GI50 [41]: 1.58 µM (inactive)
GI50 [42]: 1.63 µM (inactive)
GI50 [43]: 1.45 µM (inactive)
GI50 [45]: 1.79 µM (inactive)
GI50 [46]: 0.357 µM (active)
GI50 [48]: 0.387 µM (active)
GI50 [49]: 0.604 µM (active)
GI50 [50]: 0.484 µM (active)
GI50 [52]: 0.735 µM (active)
GI50 [53]: 0.274 µM (active)
GI50 [54]: 0.398 µM (active)
GI50 [55]: 0.337 µM (active)
GI50 [56]: 0.863 µM (active)
GI50 [58]: 1.27 µM (inactive)
GI50 [59]: 3.07 µM (inactive)
GI50 [60]: 1.08 µM (active)
GI50 [61]: 0.155 µM (active)
GI50 [62]: 2.3 µM (inactive)
GI50 [63]: 0.449 µM
GI50 [65]: 0.31 µM (active)
